Test: KI for pyridoxal 5'-phosphate (PLP)-dependent Gamma-amino-N-butyrate transaminase at pH 7.4

Ki: 6.3 µM
SMILES: NC1C=C(C(=O)O)OC1 (stereo unspecified) [4-Amino-4,5-dihydro-furan-2-carboxylic acid anion]
